The inhibition is the drop in the measured response relative to a control, in per cent. The IC50 is the concentration needed to halve the response being measured.

Holding throughout (assay type): cell-based
In assay [1] the test system is BT-549 cells. Briefly: MTT metabolization, inhibition of BT-549 cell proliferation. Particulars: Homo sapiens, read-out: Percentage inhibition Formula (III) mean. The procedure: These triple negative breast cancer cell lines were obtained from the American Type Culture Collection Cell Biology Collection (ATCC) (Manassas, Va.). The medium was changed every 2 days.
Cell proliferation and growth experiments were carried out using 3-(4,5-dimethylthiazol-2-yl)-2,5-diphenyltetrazolium bromide (MTT) uptake assays, where MTT is reduced to purple formazan by the mitochondria of living cells. Increase in cell number is detected by augmented MTT metabolization, and decrease in cell number is reflected by a decrease. […] The cells were treated with the drug at different concentrations to plot the dose-response curves in all cancer cell lines using in the study. […] After treatment, each well was replaced with 250 μL of fresh medium containing MTT ([…]) and incubated for 1 hour. The medium was then removed and 500 μL of dimethyl sulfoxide was added to each well. The plate was agitated in the dark for 5 minutes to dissolve the MTT-formazan crystals. The absorbance of the samples was recorded at 562 nm in a multi-well plate reader (BMG labtech). Results were plotted as the mean values of quadruplicates from a representative experiment that was repeated at least two independent times.
Combination index values less than 1 indicate synergism, values equal to 1 indicate an additive effect, whereas values greater than 1 indicate antagonism. Combination index values from three independent experiments were generated.

The test system of assay [2] is PI3K/mTOR/AKT and JAK/STAT pathway. Briefly: Western Blot of PI3K/mTOR/AKT and JAK/STAT pathway components. Particulars: 500 nM, up to 24 h. The procedure:
Western-blot and phospho-array kits were used for evaluation of signaling intermediates.
HS578T and BT549 cell lines were grown in DMEM 10% of FBS and at 70% confluence were treated with Formula (III) at 500 nM for 6, 12 and 24 hours. Cells were washed with phosphate-buffered saline (PBS) (137 mM NaCl, 2.7 mM KCl, 8 mM Na2HPO4, 1.5 mM KH2PO4) and lysed in ice-cold lysis buffer (20 mM Tris-HCl [pH 7.0], 140 mM NaCl, 50 mM EDTA, 10% glycerol, 1% Nonidet P-40, 1 μM pepstatin, 1 μg/mL aprotinin, 1 μg/mL leupeptin, 1 mM phenylmethyl sulfonyl fluoride, 1 mM sodium orthovanadate). Lysates were centrifuged at 10000 g at 4° C. for 10 minutes. The protein level in the supernatants was quantified using BCA protein assay (Sigma Aldrich). A total of 50 μg of protein of each sample was used for analysis. Samples were then boiled in electrophoresis sample buffer and placed on 6%-15% sodium dodecyl sulfate-polyacrylamide gel electrophoresis (SDS-PAGE) gels, depending on the molecular weight of the proteins to be analyzed. Briefly, after electrophoresis, proteins in gels were transferred to polyvinylidene difluoride membranes (Millipore Corporation). Membranes were blocked in Tris-buffered saline with Tween (TBST) (100 mM Tris [pH 7.5], 150 mM NaCl, 0.05% Tween 20) containing 1% of bovine serum albumin for 1 h and then incubated overnight with the corresponding antibody. […]

In assay [3] the test system is HS578T, BT549, MDA-MB-231 and HCC3153 cells. Briefly: MTT metabolization in a panel of TNBC cell lines. The procedure: Hs578T, BT549 and MDA-MB-231 were grown in DMEM and HCC3153 in RPMI; both mediums were purchased from Sigma Aldrich, supplemented with 10% FBS, 100 mU/mL penicillin, 100 μg/mL streptomycin and 2 mM L-glutamine, in a 5% CO2 atmosphere at 37° C. These triple negative breast cancer cell lines were obtained from the American Type Culture Collection Cell Biology Collection (ATCC) (Manassas, Va.). The medium was changed every 2 days.
Cell proliferation and growth experiments were carried out using 3-(4,5-dimethylthiazol-2-yl)-2,5-diphenyltetrazolium bromide (MTT) uptake assays, where MTT is reduced to purple formazan by the mitochondria of living cells. Increase in cell number is detected by augmented MTT metabolization, and decrease in cell number is reflected by a decrease. HS578T, BT549, MDA-MB-231 and HCC3153 cells were plated at a density of 1×10^4 cells per well in 24-well plates and cultured overnight in DMEM supplemented with 10% FBS. The cells were treated with the drug at different concentrations to plot the dose-response curves in all cancer cell lines using in the study. […] After treatment, each well was replaced with 250 μL of fresh medium containing MTT ([…]) and incubated for 1 hour. The medium was then removed and 500 μL of dimethyl sulfoxide was added to each well. The plate was agitated in the dark for 5 minutes to dissolve the MTT-formazan crystals. The absorbance of the samples was recorded at 562 nm in a multi-well plate reader (BMG labtech). Results were plotted as the mean values of quadruplicates from a representative experiment that was repeated at least two independent times.

Each structure is given as a SMILES string. Like-named read-outs stand apart in the source and are kept apart here.

As for `C[C@]12O[C@H](C[C@@H](O)[C@H]1O)n1c3ccccc3c3c4c(c5c6ccccc6n2c5c31)C(=O)NC4=O` [Formula (III)], the inhibition at 0.1 µM in assay [1] (BT-549, Formula (III) 100 nM alone (Table 9)) came out at 68.8%; in assay [1] (BT-549, Formula (III) 100 nM alone (Table 10)), 90.8%. Besides, the inhibition at 0.12 µM came out at 75.5% in assay [1] (BT-549, Formula (III) 120 nM alone (Table 7)) and 75.5% in assay [1] (BT-549, Formula (III) 120 nM alone). Further, the inhibition at 0.18 µM worked out at 63.7% in assay [1] (BT-549, Formula (III) 180 nM alone (Table 7)) and 63.7% in assay [1] (BT-549, Formula (III) 180 nM alone). The inhibition at 0.2 µM amounted to 98.5% in assay [1] (BT-549, Formula (III) 200 nM alone (Table 8)); 72.1% in assay [1] (BT-549, Formula (III) 200 nM alone (Table 9)); 71.4% in assay [1] (BT-549, Formula (III) 200 nM alone (Table 10)). Moreover, the inhibition at 0.24 µM in assay [1] (BT-549, Formula (III) 240 nM alone (Table 7)) is 45%; in assay [1] (BT-549, Formula (III) 240 nM alone), 45%. The inhibition at 0.26 µM in assay [1] (BT-549, Formula (III) 260 nM alone (Table 8)) was determined as 92.9%. Besides, the inhibition at 0.3 µM was 31.9% in assay [1] (BT-549, Formula (III) 300 nM alone (Table 7)); 78% in assay [1] (BT-549, Formula (III) 300 nM alone (Table 8)); 55.9% in assay [1] (BT-549, Formula (III) 300 nM alone (Table 9)); 62.8% in assay [1] (BT-549, Formula (III) 300 nM alone (Table 10)); 31.9% in assay [1] (BT-549, Formula (III) 300 nM alone). Also, the inhibition at 0.38 µM in assay [1] (BT-549, Formula (III) 380 nM alone (Table 8)) was determined as 75.8%. Also, the inhibition at 0.4 µM stood at 36.3% in assay [1] (BT-549, Formula (III) 400 nM alone (Table 9)) and 38.5% in assay [1] (BT-549, Formula (III) 400 nM alone (Table 10)). Moreover, the “phosphorylation of AKT, p70 S6 and STAT3” value in assay [2] was “inhibits components of the PI3K/mTOR/AKT and JAK/STAT pathway”. Also, the MTT metabolization result in assay [3] (0 to 2 μM after 72 h, 500 nM over 6 days) was “inhibited the MTT metabolization in a dose and time dependent manner”. For the same compound, the growth inhibition result in assay [3] (doses in the submicromolar (nanomolar) range, all cell lines studied) is listed as “more than 80%”. For the same compound, the IC50 in assay [3] (read-out: IC50 dose (MTT metabolization)) was 500 nM.

The record behind these values is patent US9808469B2, “Antitumor activity of multi-kinase inhibitors in triple negative breast cancer” (ENTRECHEM, S.L, priority 2014, dated 2017).
